The values below come from patent US20250041272A1, “COMPOSITIONS AND METHODS FOR TREATING CANCER VIA PTP1B INHIBITION” (priority 2021, published 2025).

The subject of test [1] is Stat1 phosphorylation and MyD88 in macrophages. The test is described as follows: Transwell co-culture of M1 induced macrophages with tumor cells plus inhibitors (Western blot, qRT-PCR). Format: cell-based, mouse. As to conditions: 24 hours. The procedure: (§1) Peritoneal macrophage isolation and culture. Peritoneal macrophages were done as described previously(65) from 8-week-old C57BL/6J mice (randomized, both male and female). PBS (Gibco) was injected in the mural peritoneal cavity to release the macrophages. After recovering, cells were centrifuged at 1200 rpm for 5 minutes, resuspended in DMEM high glucose, 10% FBS, 1% penicillin-streptomycin (Gibco) and plated. 2 hours after the last step, cells were washed with PBS and maintained in DMEM/F12 supplemented with 10% FBS, 1% penicillin-streptomycin and 20 ng/ml of M-CSF (Prospec) for 2 days. Macrophages were treated for 24 hours with 50 ng/ml LPS (Sigma Millipore), 100 ng/ml IFNγ (BioLegend), 300 ng/ml PAM3CSK4 (InvivoGen), 107 cells/ml heat killed Listeria Monocytogenes (HKLM) (InvivoGen), 100 ng/ml Flagellin Salmonella typhimurium standard (InvivoGen), 10 ng/ml FSL1 (InvivoGen), 2.5 ug/ml ssRNA40 (InvivoGen), 2.5 ug/ml CL 075 (Tocris), 5 μM ODN1826, 50 μM Fludarabine (SelleckChem), 50 nM Momelotinib (SelleckChem), 5 μM BVT948 (Sigma Millipore), 200 μM PTP1b inhibitor III (Santa Cruz Biotechnology Inc.), 5 μM NSC87877 (Santa Cruz Biotechnology Inc.), 50 μM PTP1b inhibitor (Cayman), 1 mM PTP Inhibitor IV (Santa Cruz Biotechnology Inc.), 1 μM TSC401, 300 nM UNC2371 (SelleckChem), 300 nM BMS777607 (SelleckChem), 300 nM LDC1267 (SelleckChem) 1.5 μg/ml recombinant Pros1 (R&D systems), 200 ng/ml recombinant Gas6 (R&D systems) or 10-500 μM Cisplatin (Tocris). All components were added as described in the text. Cell culture. B16F10 (CRL-6475, ATCC), Lewis lung carcinoma (LLC) (CRL-1642, ATCC), KPC2713 (Yuliya Pylayeva-Gupta laboratory, UNC) and MDA-MB-231 (HTB-26, ATCC) were cultured in DMEM high glucose supplemented with 10% FBS, 1% penicillin-streptomycin (Gibco). […]

Test [2] concerns MyD88 expression in peritoneal macrophages. The test can be described thus: Individual TLR agonism of macrophages, MyD88 by qRT-PCR. Format: cell-based, mouse. As to conditions: 24 hours. The procedure: (§2) Peritoneal macrophage isolation and culture. Peritoneal macrophages were done as described previously(65) from 8-week-old C57BL/6J mice (randomized, both male and female). PBS (Gibco) was injected in the mural peritoneal cavity to release the macrophages. After recovering, cells were centrifuged at 1200 rpm for 5 minutes, resuspended in DMEM high glucose, 10% FBS, 1% penicillin-streptomycin (Gibco) and plated. 2 hours after the last step, cells were washed with PBS and maintained in DMEM/F12 supplemented with 10% FBS, 1% penicillin-streptomycin and 20 ng/ml of M-CSF (Prospec) for 2 days. […]
On the technique in general: Quantitative PCR measures a nucleic acid by following its amplification.

The subject of test [3] is Stat1 and MyD88 expression in pro-inflammatory macrophages. The test can be described thus: Stat1 or Jak1/2 inhibitor treatment of pro-inflammatory macrophages, qRT-PCR. In kind it is cell-based, mouse. As to conditions: Fludarabine 50 μM, Momelotinib 50 nM. On the procedure: as §2
Test [4] concerns macrophage M1 associated gene expression. The test is described as follows: Cisplatin treated transwell co-culture of macrophages and B16F10 cells, qRT-PCR. In kind it is cell-based, mouse. The procedure: Peritoneal macrophage isolation and culture. Peritoneal macrophages were done as described previously(65) from 8-week-old C57BL/6J mice (randomized, both male and female). PBS (Gibco) was injected in the mural peritoneal cavity to release the macrophages. After recovering, cells were centrifuged at 1200 rpm for 5 minutes, resuspended in DMEM high glucose, 10% FBS, 1% penicillin-streptomycin (Gibco) and plated. 2 hours after the last step, cells were washed with PBS and maintained in DMEM/F12 supplemented with 10% FBS, 1% penicillin-streptomycin and 20 ng/ml of M-CSF (Prospec) for 2 days. Macrophages were treated for 24 hours with 50 ng/ml LPS (Sigma Millipore), 100 ng/ml IFNγ (BioLegend), 300 ng/ml PAM3CSK4 (InvivoGen), 107 cells/ml heat killed Listeria Monocytogenes (HKLM) (InvivoGen), 100 ng/ml Flagellin Salmonella typhimurium standard (InvivoGen), 10 ng/ml FSL1 (InvivoGen), 2.5 ug/ml ssRNA40 (InvivoGen), 2.5 ug/ml CL 075 (Tocris), 5 μM ODN1826, 50 μM Fludarabine (SelleckChem), 50 nM Momelotinib (SelleckChem), 5 μM BVT948 (Sigma Millipore), 200 μM PTP1b inhibitor III (Santa Cruz Biotechnology Inc.), 5 μM NSC87877 (Santa Cruz Biotechnology Inc.), 50 μM PTP1b inhibitor (Cayman), 1 mM PTP Inhibitor IV (Santa Cruz Biotechnology Inc.), 1 μM TSC401, 300 nM UNC2371 (SelleckChem), 300 nM BMS777607 (SelleckChem), 300 nM LDC1267 (SelleckChem) 1.5 μg/ml recombinant Pros1 (R&D systems), 200 ng/ml recombinant Gas6 (R&D systems) or 10-500 μM Cisplatin (Tocris). All components were added as described in the text. Cell culture. B16F10 (CRL-6475, ATCC), Lewis lung carcinoma (LLC) (CRL-1642, ATCC), KPC2713 (Yuliya Pylayeva-Gupta laboratory, UNC) and MDA-MB-231 (HTB-26, ATCC) were cultured in DMEM high glucose supplemented with 10% FBS, 1% penicillin-streptomycin (Gibco). GEMM6 (Dr. Alisha Holtzhausen, UNC), KPPC4662 (Dr. Yuliya Pylayeva-Gupta laboratory, UNC), KPPC4548 (Yuliya Pylayeva-Gupta laboratory, UNC) and E0771 (CRL-3461, ATCC) were maintained in RPMI 1640 supplemented with […], 1% penicillin/streptomycin (Gibco) while PyMT cells were cultured in Ham's F-12K with 10% FBS, 1% penicillin-streptomycin (Gibco). Transwell assays were performed in 0.4 μm polyester membrane insert culture plates (Corning). 500,000 cells of each line were plated per well in DMEM/F12 supplemented with 10% FBS, 1% penicillin-streptomycin and 20 ng/ml of M-CSF for culture with mouse macrophages. SC cells (CRL-9855, ATCC) were cultured in IMDM with 10% FBS and 1% penicillin-streptomycin (Gibco). In transwell experiments with the SC cell line, cancer cells were also resuspended in IMDM media.
qRT-PCR. RNA was isolated using the RNeasy Plus Mini Kit (Quiagen) and cDNA was prepared using the Reverse Transcription System (Promega) with one-hour reverse transcription process. qRT-PCR was done using the PowerUp™ SYBR™ Green Master Mix (Applied Biosystems) on a QuantStudio Pro Real-time PCR system (Applied Biosystems) with a 95° C. pretreatment of 10 min, 50 cycles of 95° C., 10 sec and 60° C., 1 min and melt curve at the end. Analysis was performed with the 2^−ΔΔCT method(136).

Another test has as its system B16F10 tumors. The test can be described thus: Subcutaneous B16F10 melanoma tumor model. As to conditions: BVT948 10 mg/kg or Cisplatin 5 mg/kg intraperitoneal, treatment from 50 mm^3. Format: in vivo, mouse. On the procedure:
(§3) Tumor implantation, treatment and harvest. For animal studies, 1*10^5 B16F10 luciferase-tagged melanoma cells, 1*10^6 GEMM6 melanoma cells or 2*10^6 LCC cells were implanted subcutaneously into C57BL/6J mice (randomized, both males and females, 000664 The Jackson laboratory). When indicated, mice received intraperitoneal injections 7 days after implantation with 100 μl of 5 mg/kg cisplatin (Tocris), 100 μl of 10 mg/kg BVT948 (Tocris) or 100 μl of 30 mg/kg of vemurafenib. 5 mice were used per experimental group and tumors were harvested when they reached 1.5 cm in any direction.
(§4) Immunohistochemistry analysis. Immunohistochemistry assay was carried out in formalin-fixed, paraffin-embedded 4 μm sections using primary antibodies against F4:80 (AbD Serotec), CD11b (Abcam), CD4 (eBioscience) or CD8a (eBioscience) on a Discovery Ultra Automated IHC staining system (Ventana). Sections were then imaged using a ScanScope XT microscope (Aperio) and quantified using Aperio software.

The next test relates to LLC tumors. The test is described as follows: Subcutaneous LLC tumor model. In kind it is in vivo, mouse. As to conditions: BVT948 10 mg/kg or Cisplatin 5 mg/kg intraperitoneal, treatment from 50 mm^3. The procedure:
as §3, §4

The subject of test [5] is macrophage MyD88 expression. The test can be described thus: Exogenous TAM ligand addition to pro-inflammatory macrophages, MyD88 qRT-PCR. As to conditions: Pros1 1.5 ug/ml, Gas6 200 ng/ml, compared with transwell co-cultured B16F10 cells. Format: cell-based, mouse. On the procedure: as §1

Consider `O=S(=O)(O)c1ccc2cc(N=Nc3cc(S(=O)(=O)O)c4cccnc4c3O)ccc2c1` [NSC87877], for which, in test [1], the “Stat1 phosphorylation at Tyrosine 701 and Serine 727” value is “increased”.

Regarding Pam3CSK4, the “MyD88 expression upon individual TLR agonism” value in test [2] is reported as “upregulation of MyD88”.

On to `CCc1oc2cc(S(=O)(=O)Nc3ccc(S(=O)(=O)Nc4nccs4)cc3)ccc2c1C(=O)c1cc(Br)c(O)c(Br)c1` [PTP inhibitor], for which, in test [1], the “Stat1 phosphorylation at Tyrosine 701 and Serine 727” value is on record as “increased”.

Take `N#CCNC(=O)c1ccc(-c2ccnc(Nc3ccc(N4CCOCC4)cc3)n2)cc1` [Momelotinib]: the Stat1 expression entry in test [3] was “did not significantly alter”. In test [3] (compared with B16F10 transwell co-culture), the MyD88 expression result is given as “did not significantly alter”.

As to FSL-1, the “MyD88 expression upon individual TLR agonism” value in test [2] was “upregulation of MyD88”.

For `N.N.[Cl][Pt][Cl]` [Cisplatin], the “activation of Mer deficient macrophages” value in test [4] (25 μM Cisplatin, co-cultured with B16F10 tumor cells, no PTP1b inhibitor) was “macrophages could be activated even in the presence of tumor cells”. Further, the “M1 associated gene expression, Cisplatin alone” value in test [4] (even at 500 μM Cisplatin, wildtype macrophages with B16F10 cells) was “did not lead to substantially increased M1 associated gene expression”. The “M1 gene expression in MyD88 knockout macrophages” value in test [4] (increasing Cisplatin, with or without BVT948) is given as “Neither increasing concentrations of Cisplatin, nor PTP1 b inhibition, were able to restore M1 gene expression”. In addition, the “B16F10 tumor growth, monotherapy vs vehicle” value in the test on B16F10 tumors was “did not significantly reduce”. Further, the “LLC tumor growth reduction, monotherapy” value with LLC tumors is 30%.

For the molecule “Pros1: recombinant murine Pros1, TAM family ligand (R&D systems)”, the “macrophage MyD88 expression after exogenous ligand addition” value in test [5] was “reduced comparably to that of tumor cell secretions”; in test [5] (listed as Recombinant murine Pros1), “suppresses macrophage MyD88 expression similarly to transwell co-culture with B16F10 cells”.

B1: Gas6: recombinant Gas6, TAM family ligand (R&D systems) (protein, UniProt Q14393 31-678, looked up)
Growth arrest-specific …: ALLPAREATQFLRPRQRRAFQVFEEAKQGHLERECVEELCSREEAREVFENDPETDYFYPRYLDCINKYGSPYTKNSGFATCVQNLPDQCTPNPCDRKGTQACQDLMGNFFCLCKAGWGGRLCDKDVNECSQENGGCLQICHNKPGSFHCSCHSGFELSSDGRTCQDIDECADSEACGEARCKNLPGSYSCLCDEGFAYSSQEKACRDVDECLQGRCEQVCVNSPGSYTCHCDGRGGLKLSQDMDTCEDILPCVPFSVAKSVKSLYLGRMFSGTPVIRLRFKRLQPTRLVAEFDFRTFDPEGILLFAGGHQDSTWIVLALRAGRLELQLRYNGVGRVTSSGPVINHGMWQTISVEELARNLVIKVNRDAVMKIAVAGDLFQPERGLYHLNLTVGGIPFHEKDLVQPINPRLDGCMRSWNWLNGEDTTIQETVKVNTRMQCFSVTERGSFYPGSGFAFYSLDYMRTPLDVGTESTWEVEVVAHIRPAADTGVLFALWAPDLRAVPLSVALVDYHSTKKLKKQLVVLAVEHTALALMEIKVCDGQEHVVTVSLRDGEATLEVDGTRGQSEVSAAQLQERLAVLERHLRSPVLTFAGGLPDVPVTSAPVTAFYRGCMTLEVNRRLLDLDEAAYKHSDITAHSCPPVEPAAA
Take B1: the “macrophage MyD88 expression after exogenous ligand addition” value in test [5] is “limited effect”.
